# According to the supplement of paper PMC10307832:
# Experiments:
# Assay in all cases: relative viability (nuclei count vs DMSO), 5 days (fraction); higher = more cells survive
# [1] = compound: C[C@]12O[C@H](C[C@]1(O)CO)n1c3ccccc3c3c4c(c5c6ccccc6n2c5c31)CNC4=O [Lestaurtinib] + CCNC(=O)c1noc(-c2cc(C(C)C)c(O)cc2O)c1-c1ccc(CN2CCOCC2)cc1 [Luminespib] (partner 0.01 µM)
# Procedure, shortened: (§1)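 Each reported value is a median over duplicate plates. It expresses relative viability: treated-well nuclei count divided by vehicle-well nuclei count. Lung cancer cell lines in 1536-well plates were dosed by pin tool a day after seeding, alone with one drug or with a fixed anchor-drug dose plus five library-drug doses (not always all listed) in √10 steps, and nuclei were counted after 5 days.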
# [2] = compound: C1/C(=C\C2=CC=CS2)/C(=O)/C(=C/C3=CC=CS3)/C1 + COc1cc2c(Oc3ccc(NC(=O)C4(C(=O)Nc5ccc(F)cc5)CC4)cc3F)ccnc2cc1OCCCN1CCOCC1 [Foretinib] (partner 0.25 µM)
# Procedure, shortened: as §1
# [3] = compound: C[C@]12O[C@H](C[C@]1(O)CO)n1c3ccccc3c3c4c(c5c6ccccc6n2c5c31)CNC4=O [Lestaurtinib] + CC(C)C[C@H](NC(=O)[C@H](Cc1ccccc1)NC(=O)c1cnccn1)B(O)O [Bortezomib] (partner 0.002 µM)
# Procedure, shortened: as §1
# TPCA-1 + Foretinib = compound: C1=CC(=CC=C1C2=CC(=C(S2)NC(=O)N)C(=O)N)F [TPCA-1] + COc1cc2c(Oc3ccc(NC(=O)C4(C(=O)Nc5ccc(F)cc5)CC4)cc3F)ccnc2cc1OCCCN1CCOCC1 [Foretinib] (partner 0.25 µM)
# Procedure, shortened: as §1
Cell Line,relative viability ([1]; first compound 0.005 µM),relative viability ([1]; first compound 0.01581 µM),relative viability ([1]; first compound 0.05 µM),relative viability ([1]; first compound 0.1581 µM),relative viability ([1]; first compound 0.5 µM),relative viability ([2]; first compound 0.2 µM),relative viability ([2]; first compound 0.6325 µM),relative viability ([2]; first compound 2 µM),relative viability ([2]; first compound 6.325 µM),relative viability ([2]; first compound 20 µM),relative viability ([3]; first compound 0.005 µM),relative viability ([3]; first compound 0.01581 µM),relative viability ([3]; first compound 0.05 µM),relative viability ([3]; first compound 0.1581 µM),relative viability ([3]; first compound 0.5 µM),relative viability (TPCA-1 + Foretinib; first compound 0.04 µM),relative viability (TPCA-1 + Foretinib; first compound 0.1265 µM),relative viability (TPCA-1 + Foretinib; first compound 0.4 µM),relative viability (TPCA-1 + Foretinib; first compound 1.265 µM),relative viability (TPCA-1 + Foretinib; first compound 4 µM)
NCI-H1355,0.646,0.625,0.455,0.493,0.261,1.01,0.877,0.995,0.913,0.954,1.36,1.2,1.21,1.03,0.571,0.991,0.837,0.977,0.932,0.705
EKVX,0.951,0.876,0.999,0.821,0.541,0.82,0.696,0.603,0.615,0.778,1.1,1.26,0.999,1.19,0.679,0.627,0.596,0.895,0.624,0.148
NCI-H441,0.375,0.277,0.329,0.399,0.409,1.11,0.913,1.15,0.867,0.927,0.4,0.618,0.603,0.295,0.367,0.487,0.856,0.841,0.834,0.668
NCI-H1975,0.538,0.171,0.199,0.137,0.159,0.971,0.979,,0.771,0.895,0.467,0.368,0.345,0.318,0.217,0.949,0.919,0.995,0.97,0.532
HCC-78,,,,,,0.581,0.602,0.56,0.444,0.481,0.47,0.488,0.425,0.283,0.29,0.611,0.52,0.608,0.65,0.541
NCI-H2085,0.436,0.449,0.57,0.41,0.337,1.09,1.05,0.984,0.927,0.883,1,0.969,0.973,1.33,0.803,0.846,0.79,1.2,0.882,0.742
H3255,0.766,0.94,0.835,0.716,0.486,0.847,1.09,1.1,0.819,0.83,0.773,0.982,0.648,0.903,0.351,0.825,0.876,0.821,0.541,0.514
NCI-H2087,0.158,0.253,0.163,0.148,0.165,1.26,1.28,1.15,1.17,1.13,0.882,0.936,0.745,0.764,0.354,1.52,0.99,1.09,0.894,0.432
LC-2-ad,1.1,1.21,0.799,0.617,0.372,0.971,0.941,0.99,0.817,0.89,0.966,1.2,0.882,0.407,0.329,1.06,0.88,0.818,0.845,0.552
PC-3 [JPC-3],0.647,0.645,0.53,0.525,0.255,1.11,1.05,1.01,0.865,1.11,0.82,0.788,0.738,0.914,0.746,1.03,1.08,0.968,0.984,1.02
EBC-1,,,,,,0.112,0.091,0.0946,0.111,0.0934,0.495,0.621,0.504,0.43,0.227,0.0976,0.0894,0.103,0.125,0.13
HCC-15,0.365,0.552,0.341,0.294,0.157,1.09,0.994,1.03,0.917,1.06,1.04,1.28,0.868,0.868,0.194,1.09,0.919,1.06,0.96,0.77
NCI-H1563,0.554,0.495,0.546,0.5,0.48,0.952,1.1,0.968,0.895,0.93,0.938,0.836,0.741,0.957,0.705,1.03,0.944,0.96,0.991,1.02
COR-L 105,0.843,0.826,0.532,0.67,0.263,1.49,1.02,1.31,,1.03,0.893,0.665,0.706,0.521,0.253,1.01,1.1,1.23,1.2,0.983
NCI-H2170,0.501,0.519,0.593,0.383,0.266,1.02,0.99,1.02,0.887,1.03,,,,,,1.08,0.985,0.998,0.986,0.682
NCI-H522,1.3,1.01,1.08,1.03,0.699,,,,,,,,,,,,,,,
NCI-H1299,,,,,,1.17,1.12,1.1,1.03,1.11,1.04,0.982,1.03,0.843,0.751,1.07,1.07,1.03,1.09,1.07

Cell Line,relative viability ([1]; first compound 0.005 µM),relative viability ([1]; first compound 0.01581 µM),relative viability ([1]; first compound 0.05 µM),relative viability ([1]; first compound 0.1581 µM),relative viability ([1]; first compound 0.5 µM),relative viability ([2]; first compound 0.2 µM),relative viability ([2]; first compound 0.6325 µM),relative viability ([2]; first compound 2 µM),relative viability ([2]; first compound 6.325 µM),relative viability ([2]; first compound 20 µM),relative viability ([3]; first compound 0.005 µM),relative viability ([3]; first compound 0.01581 µM),relative viability ([3]; first compound 0.05 µM),relative viability ([3]; first compound 0.1581 µM),relative viability ([3]; first compound 0.5 µM),relative viability (TPCA-1 + Foretinib; first compound 0.04 µM),relative viability (TPCA-1 + Foretinib; first compound 0.1265 µM),relative viability (TPCA-1 + Foretinib; first compound 0.4 µM),relative viability (TPCA-1 + Foretinib; first compound 1.265 µM),relative viability (TPCA-1 + Foretinib; first compound 4 µM)
NCI-H1395,0.654,0.668,0.616,0.472,0.374,0.992,0.945,1.18,0.861,1.01,,,,,,1.05,1.01,0.975,0.96,0.823
NCI-H1944,0.716,0.784,0.773,0.54,0.302,0.918,0.828,0.89,0.844,0.859,,,,,,1.04,0.821,0.869,0.847,0.488
Calu-6,,,,,,0.833,0.945,0.895,0.759,0.82,1.07,0.875,0.744,0.562,0.184,0.946,0.877,0.862,0.853,0.659
NCI-H1703,,,,,,0.381,0.451,0.33,0.257,0.337,0.31,0.359,0.308,0.137,0.117,0.308,0.33,0.315,,0.302
NCI-H2342,0.779,0.624,0.651,0.738,0.7,1.08,1.28,1.17,0.989,1.1,,,,,,1.03,0.998,1.15,0.992,0.962
NCI-H1792,,0.618,0.332,0.464,0.158,,,,,,1.29,1.08,0.5,1.07,0.437,,,,,
NCI-H1623,0.6,0.617,0.406,0.352,0.444,0.863,0.907,0.871,0.786,0.821,,,,,,0.824,0.757,0.937,0.973,0.644
HCC-366,,,,,,0.919,0.915,0.99,0.849,0.904,1.13,1.11,0.565,1.05,0.43,0.921,0.86,0.922,0.851,0.654
HCC-44,1.14,1.22,0.623,0.873,0.308,,,,,,0.925,0.997,0.873,1.06,0.683,,,,,
SW 900,0.172,0.146,0.151,0.159,0.178,0.823,0.817,0.804,0.9,1.16,,,,,,0.894,0.71,0.841,0.958,0.789
LK-2,0.202,0.19,0.17,0.208,0.203,1.57,1.51,1.11,1.18,1.41,,,,,,1.5,0.969,1.14,1.14,0.729
SK-MES-1,0.714,0.619,0.391,0.229,0.261,0.949,1,0.925,0.701,0.848,,,,,,0.997,0.847,0.813,0.599,0.609
NCI-H1793,0.193,0.249,0.156,0.154,0.161,0.754,0.629,0.783,0.579,0.625,,,,,,0.72,,0.647,0.559,0.263
IA-LM,,,,,,1.17,1.24,1.21,1.08,1.06,1.08,1.18,1.08,0.943,0.339,1.14,1.02,1.09,1.01,0.885
A549,,,,,,0.888,1.01,0.968,,0.937,,,,,,0.989,1.03,0.947,0.826,0.764
NCI-H358,0.446,0.325,0.378,0.149,0.121,0.668,0.742,0.761,,0.631,,,,,,0.811,0.729,0.845,0.517,0.227
